Some results are limits rather than exact numbers.

In general, IC50 refers to the concentration needed to halve the response being measured.

The target of one assay is T1, Human Factor D (Homo sapiens, UniProt P00746).
T1 construct: purified from human serum; purchased Complement Technology, Inc; host or cells: human serum
T1 sequence (P00746 26-253): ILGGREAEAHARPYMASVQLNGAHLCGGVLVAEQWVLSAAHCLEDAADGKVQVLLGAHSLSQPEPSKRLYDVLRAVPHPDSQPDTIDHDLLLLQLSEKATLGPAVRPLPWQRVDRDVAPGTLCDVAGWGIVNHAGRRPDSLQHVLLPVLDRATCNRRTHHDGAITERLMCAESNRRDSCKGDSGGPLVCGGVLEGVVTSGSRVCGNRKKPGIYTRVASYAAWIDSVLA
The assay can be described thus: Human Factor D assay (Example 8). Type of assay: biochemical.
Settings: not given
On the procedure:
Human Factor D (purified from human serum, Complement Technology, Inc.) at 80 nM final concentration was incubated with test compound at various concentrations for 5 minutes at room temperature in 50 mM Tris, 1M NaCl, pH 7.5. A synthetic substrate Z-L-Lys-SBzl and DTNB (Ellman's reagent) are added to final concentrations of 100 μM each. […] IC50 values are calculated by nonlinear regression of complement Factor D reaction rates as a function of test compound concentration.
Molecule `CC(=O)c1cn(CC(=O)N2C[C@H](F)C[C@H]2C(=O)Nc2cccc(-c3ccccc3Cl)c2F)c2c(C#N)cccc12` [Compound 79, (2S,4R)-1-(2-(3-acetyl-7-cyano-1H-indol-1-yl)acetyl)-N-(2′-chloro-2-fluorobiphenyl-3-yl)-4-fluoropyrrolidine-2-carboxamide] registered an IC50 of under 1000 nM.

`NC(=O)c1nn(CC(=O)N2C[C@H](F)C[C@H]2C(=O)Nc2cccc(-c3cc(F)c(F)cc3Cl)c2F)c2ccccc12` [Compound 80, 1-(2-((2S,4R)-2-((2′-Chloro-2,4′,5′-trifluoro-[1,1′-biphenyl]-3-yl)carbamoyl)-4-fluoropyrrolidin-1-yl)-2-oxoethyl)-1H-indazole-3-carboxamide] gave an IC50 of under 1000 nM.

The molecule `CC(=O)c1cn(CC(=O)N2C[C@H](F)C[C@H]2C(=O)Nc2cccc(Br)n2)c2ccc(C3(N4C(=O)c5ccccc5C4=O)CC3)cc12` [Compound 81, (2S,4R)-1-(2-(3-acetyl-5-(1-(1,3-dioxoisoindolin-2-yl)cyclopropyl)-1H-indol-1-yl)acetyl)-N-(6-bromopyridin-2-yl)-4-fluoropyrrolidine-2-carboxamide] yielded an IC50 of under 1000 nM.

In turn, `CC(=O)c1cn(CC(=O)N2C[C@H](F)C[C@H]2C(=O)Nc2cccc(-c3cc(F)c(F)cc3Cl)c2F)c2ccccc12` [Compound 82, (2S,4R)-1-(2-(3-acetyl-1H-indol-1-yl)acetyl)-N-(2′-chloro-2,4′,5′-trifluorobiphenyl-3-yl)-4-fluoropyrrolidine-2-carboxamide] came in with an IC50 of under 1000 nM.

The molecule `NC(=O)c1nn(CC(=O)N2C[C@H](F)C[C@H]2C(=O)Nc2cccc(-c3ccc(F)c(F)c3Cl)c2F)c2ccccc12` [Compound 92, 1-(2-((2S,4R)-2-(2′-chloro-2,3′,4′-trifluorobiphenyl-3-ylcarbamoyl)-4-fluoropyrrolidin-1-yl)-2-oxoethyl)-1H-indazole-3-carboxamide] came in with an IC50 of under 1000 nM.

The molecule `CC(=O)c1cn(CC(=O)N2C[C@H](F)C[C@H]2C(=O)Nc2cccc(-c3ccc(F)c(F)c3Cl)c2F)c2ccccc12` [Compound 93, (2S,4R)-1-(2-(3-acetyl-1H-indol-1-yl)acetyl)-N-(2′-chloro-2,3′,4′-trifluorobiphenyl-3-yl)-4-fluoropyrrolidine-2-carboxamide] had an IC50 of under 1000 nM.

For the molecule `NC(=O)c1nn(CC(=O)N2C[C@H](F)C[C@H]2C(=O)Nc2cccc(-c3cc(F)cc(F)c3Cl)c2F)c2ccccc12` [Compound 94, 1-(2-((2S,4R)-2-(2′-chloro-2,3′,5′-trifluorobiphenyl-3-ylcarbamoyl)-4-fluoropyrrolidin-1-yl)-2-oxoethyl)-1H-indazole-3-carboxamide], the IC50 is under 1000 nM.

Turning to `CC(=O)c1cn(CC(=O)N2C[C@H](F)C[C@H]2C(=O)Nc2cccc(-c3cc(F)cc(F)c3Cl)c2F)c2ccccc12` [Compound 95, (2S,4R)-1-(2-(3-acetyl-1H-indol-1-yl)acetyl)-N-(2′-chloro-2,3′,5′-trifluorobiphenyl-3-yl)-4-fluoropyrrolidine-2-carboxamide], the IC50 was under 1000 nM.

For the molecule `CC(=O)c1cn(CC(=O)N2C[C@H](F)C[C@H]2C(=O)Nc2cccc(-c3ccccc3Cl)c2F)c2cccc(C#N)c12` [Compound 97, (2S,4R)-1-(2-(3-acetyl-4-cyano-1H-indol-1-yl)acetyl)-N-(2′-chloro-2-fluorobiphenyl-3-yl)-4-fluoropyrrolidine-2-carboxamide], the IC50 was under 1000 nM.

`N#Cc1cccc2c(C(N)=O)nn(CC(=O)N3C[C@H](F)C[C@H]3C(=O)Nc3cccc(-c4ccccc4Cl)c3F)c12` [Compound 111, 1-(2-((2S,4R)-2-((2′-Chloro-2-fluoro-[1,1′-biphenyl]-3-yl)carbamoyl)-4-fluoropyrrolidin-1-yl)-2-oxoethyl)-7-cyano-1H-indazole-3-carboxamide] had an IC50 of under 1000 nM.

`CC(=O)c1cn(CC(=O)N2C[C@H](F)C[C@H]2C(=O)Nc2cccc(-c3ccccc3Cl)c2F)c2c(-c3ccc(Cl)nc3)cccc12` [Compound 112, (2S,4R)-1-(2-(3-acetyl-7-(6-chloropyridin-3-yl)-1H-indol-1-yl)acetyl)-N-(2′-chloro-2-fluorobiphenyl-3-yl)-4-fluoropyrrolidine-2-carboxamide] yielded an IC50 of under 1000 nM.

Still in this assay, the particulars now being: Table 1; Human Factor D 80 nM, substrate Z-L-Lys-SBzl; read-out: IC50.
For `O=C(NCc1cccc(Cl)c1F)[C@@H]1C[C@@H](F)CN1C(=O)Cn1nc(-c2cnc[nH]2)c2ccncc21` [Compound 75, (2S,4R)-1-(2-(3-(1H-imidazol-5-yl)-1H-pyrazolo[3,4-c]pyridin-1-yl)acetyl)-N-(3-chloro-2-fluorobenzyl)-4-fluoropyrrolidine-2-carboxamide], the IC50 was under 1000 nM.

With `NS(=O)(=O)c1cn(CC(=O)N2C[C@H](F)C[C@H]2C(=O)NCc2cccc(Cl)c2F)c2ccccc12` [Compound 76, (2S,4R)-N-(3-chloro-2-fluorobenzyl)-4-fluoro-1-(2-(3-sulfamoyl-1H-indol-1-yl)acetyl)pyrrolidine-2-carboxamide], the IC50 was under 1000 nM.

As to `NC(=O)c1nn(CC(=O)N2[C@@H]3C[C@@H]3C[C@H]2C(=O)Nc2cccc(-c3ccccc3Cl)c2F)cc1Br` [Compound 77, (1R,3S,5R)-2-(2-(4-Bromo-3-carbamoyl-1H-pyrazol-1-yl)acetyl)-N-(2′-chloro-2-fluoro-[1,1′-biphenyl]-3-yl)-2-azabicyclo[3.1.0]hexane-3-carboxamide], the IC50 is under 1000 nM.

On to `NC(=O)c1nn(CC(=O)N2C[C@H](F)C[C@H]2C(=O)Nc2cccc(-c3cc(F)c(F)cc3Cl)c2F)c2cnccc12` [Compound 83, 1-(2-((2S,4R)-2-(2′-chloro-2,4′,5′-trifluorobiphenyl-3-ylcarbamoyl)-4-fluoropyrrolidin-1-yl)-2-oxoethyl)-1H-pyrazolo[3,4-c]pyridine-3-carboxamide], for which the IC50 is under 1000 nM.

In the case of `CC(=O)n1cc(CC(=O)N2C[C@H](F)C[C@H]2C(=O)Nc2cccc(-c3ccccc3Cl)c2F)c2ccsc21` [Compound 90, (2S,4R)-1-(2-(6-acetyl-6H-thieno[2,3-b]pyrrol-4-yl)acetyl)-N-(2′-chloro-2-fluorobiphenyl-3-yl)-4-fluoropyrrolidine-2-carboxamide], the half-inhibitory concentration (IC50) was under 1000 nM.

Take `CC(=O)Nc1cccc2c1c(C(C)=O)cn2CC(=O)N1C[C@H](F)C[C@H]1C(=O)Nc1cccc(-c2ccccc2Cl)c1F` [Compound 91, (2S,4R)-1-(2-(4-acetamido-3-acetyl-1H-indol-1-yl)acetyl)-N-(2′-chloro-2-fluorobiphenyl-3-yl)-4-fluoropyrrolidine-2-carboxamide]: the IC50 was over 10000 nM.

As to `NC(=O)c1cn(CC(=O)N2C[C@H](F)C[C@H]2C(=O)Nc2cccc(-c3ccccc3Cl)c2F)c2sccc12` [Compound 98, 6-(2-((2S,4R)-2-(2′-chloro-2-fluorobiphenyl-3-ylcarbamoyl)-4-fluoropyrrolidin-1-yl)-2-oxoethyl)-6H-thieno[2,3-b]pyrrole-4-carboxamide], the IC50 is under 1000 nM.

In the case of `NC(=O)c1nn(CC(=O)N2C[C@H](F)C[C@H]2C(=O)Nc2cccc(-c3ccccc3Cl)c2F)c2ccsc12` [Compound 99, 1-(2-((2S,4R)-2-((2′-Chloro-2-fluoro-[1,1′-biphenyl]-3-yl)carbamoyl)-4-fluoropyrrolidin-1-yl)-2-oxoethyl)-1H-thieno[3,2-c]pyrazole-3-carboxamide], the IC50 is under 1000 nM.

Consider `NC(=O)c1nn(CC(=O)N2C[C@H](F)C[C@H]2C(=O)Nc2cccc(-c3c(F)cc(F)cc3Cl)n2)c2cnccc12` [Compound 100, 1-(2-((2S,4R)-2-(6-(2-chloro-4,6-difluorophenyl)pyridin-2-ylcarbamoyl)-4-fluoropyrrolidin-1-yl)-2-oxoethyl)-1H-pyrazolo[3,4-c]pyridine-3-carboxamide], for which the IC50 was under 1000 nM.

For the molecule `NC(=O)c1nn(CC(=O)N2C[C@H](F)C[C@H]2C(=O)Nc2cccc(-c3c(F)cc(F)cc3Cl)c2)c2cnccc12` [Compound 101, 1-(2-((2S,4R)-2-(2′-chloro-4′,6′-difluorobiphenyl-3-ylcarbamoyl)-4-fluoropyrrolidin-1-yl)-2-oxoethyl)-1H-pyrazolo[3,4-c]pyridine-3-carboxamide], the IC50 is under 1000 nM.

For the molecule `NC(=O)c1cn(CC(=O)N2C[C@H](F)C[C@H]2C(=O)Nc2cccc(-c3ccccc3Cl)c2F)c2ccsc12` [Compound 103, 4-(2-((2S,4R)-2-(2′-chloro-2-fluorobiphenyl-3-ylcarbamoyl)-4-fluoropyrrolidin-1-yl)-2-oxoethyl)-4H-thieno[3,2-b]pyrrole-6-carboxamide], the IC50 was under 1000 nM.

For `NC(=O)c1nn(CC(=O)N2C[C@H](F)C[C@H]2C(=O)Nc2cccc(-c3ccccc3Cl)c2F)c2c1CCCC2` [Compound 104, 1-(2-((2S,4R)-2-((2′-chloro-2-fluoro-[1,1′-biphenyl]-3-yl)carbamoyl)-4-fluoropyrrolidin-1-yl)-2-oxoethyl)-4,5,6,7-tetrahydro-1H-indazole-3-carboxamide], the IC50 was under 1000 nM.

On to `NC(=O)c1nn(CC(=O)N2C[C@H](F)C[C@H]2C(=O)Nc2cccc(Br)n2)c2ccsc12` [Compound 106, 1-(2-((2S,4R)-2-((6-Bromopyridin-2-yl)carbamoyl)-4-fluoropyrrolidin-1-yl)-2-oxoethyl)-1H-thieno[3,2-c]pyrazole-3-carboxamide], for which the IC50 was under 1000 nM.

In the case of `NC(=O)c1nn(CC(=O)N2[C@@H]3C[C@@H]3C[C@H]2C(=O)NCc2cccc(Cl)c2F)c2ccsc12` [Compound 107, 1-(2-((1R,3S,5R)-3-(3-chloro-2-fluorobenzylcarbamoyl)-2-azabicyclo[3.1.0]hexan-2-yl)-2-oxoethyl)-1H-thieno[3,2-c]pyrazole-3-carboxamide], the IC50 was under 1000 nM.

Regarding `COc1ncc(-c2cn(CC(=O)N3C[C@H](F)C[C@H]3C(=O)Nc3cccc(-c4ccccc4Cl)c3F)nc2C(N)=O)cn1` [Compound 110, 1-(2-((2S,4R)-2-((2′-Chloro-2-fluoro-[1,1′-biphenyl]-3-yl)carbamoyl)-4-fluoropyrrolidin-1-yl)-2-oxoethyl)-4-(2-methoxypyrimidin-5-yl)-1H-pyrazole-3-carboxamide], the IC50 was over 10000 nM.
